Experiments:
[1] = Dissociation constant, pKa of the compound by potentiometric titration
Thromboxane A2 receptor = target: T1, Thromboxane A2 receptor (Homo sapiens, UniProt P21731); experiment: Inhibition of human TP receptor expressed in QBI-HEK 293A cells assessed as IP3 metabolite level after 1 hr by HTRF assay; assay type: functional, cell-based
T1 sequence (P21731 whole entry): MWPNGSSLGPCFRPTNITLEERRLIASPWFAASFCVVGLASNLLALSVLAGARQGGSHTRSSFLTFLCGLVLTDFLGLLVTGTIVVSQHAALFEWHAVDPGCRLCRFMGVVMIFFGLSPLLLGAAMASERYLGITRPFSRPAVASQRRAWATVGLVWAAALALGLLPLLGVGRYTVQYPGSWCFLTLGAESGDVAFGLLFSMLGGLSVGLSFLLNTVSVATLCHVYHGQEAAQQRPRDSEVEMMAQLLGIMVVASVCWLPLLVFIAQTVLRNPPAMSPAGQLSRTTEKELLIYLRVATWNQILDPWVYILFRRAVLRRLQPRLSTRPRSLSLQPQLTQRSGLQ

Plasma = experiment: Stability in CD-1 mouse plasma at 1 uM after 1 hr by LC/MS/MS analysis; assay type: ADME, cell-free

| pKa [1] | IC50 (Thromboxane A2 receptor) | Stability (Plasma) | Structure (SMILES) |
| --- | --- | --- | --- |
| 8.6 |  |  | O=C1CCC(Cc2ccc(Br)cc2)=C1O |
|  | 0.054 µM | Stable | O=C1CCC(Cc2cccc(CCNS(=O)(=O)c3ccc(Cl)cc3)c2)=C1O |
|  | 1.14 µM |  | O=C1CC(c2cccc(CCNS(=O)(=O)c3ccc(Cl)cc3)c2)C=C1O (stereo not given) |
|  | 0.0026 µM |  | O=C(O)CCc1cccc2c1CCC(NS(=O)(=O)c1ccc(Cl)cc1)C2 (stereo not given) |

From ChEMBL document CHEMBL3352030, “Evaluation of the cyclopentane-1,2-dione as a potential bio-isostere of the carboxylic acid functional group” (Bioorg Med Chem Lett, 2014)
